Experimental data published in article PMC10518255, “A first-in-class pan-lysyl oxidase inhibitor impairs stromal remodeling and enhances gemcitabine response and survival in pancreatic cancer” (Nature Cancer, 2023).
Values joined by “and” are separate entries in the source; they are usually repeats but may differ in a detail not shown here. Identical values can stand only once.

Test system: TKCC10 human PDX tumors
Assay: TKCC10 human model, FITC-dextran perfusion (Extended Data Fig. 5f)
Type: in vivo, mouse
Details: for FITC-dextran (10 kDa) signal quantification: Extended Data 5F, human PDXs, individual FOV
Method: Subcutaneous PDX studies were performed by implanting early passage PDX pieces (~4 mm^3) or TKCC10 CCs (1.5 × 10^6 cells per mouse in 100 μl PBS/Matrigel 1:1) into female (PDX) or male (TKCC10) 8-week-old immunocompromised nude Balb/c-Fox1nuAusb mice subcutaneously on the left flank. For the duration of the study, mice were kept in conventional caging with environmental enrichment, access to standard chow, water ad libitum and 12-h light–dark cycle at ambient temperature and humidity. Treatment began when tumors reached 150 mm^3, where each mouse was randomized into a treatment group and administered gemcitabine HCl (100 mg kg^−1 in saline) (Jomar Life Research) or vehicle control (0.9% saline) by i.p. injection twice weekly on day 2 and 4 of the treatment cycle until an ethical end point was reached. These included maximal tumor mass ≥10% of body weight, weight loss ≥20% from maximum body weight or tumor interfering with mobility and affecting access to food and water. […] Tumor size was monitored every second day by calipers. Tumor volume was calculated using the formula (length × width^2)/2. […]
FITC-dextran (10 kDa) was administered at 40 mg ml^−1 in saline via tail vain 2 h before culling. […] Images were quantified using Fiji Software for Integrated Density Signal.
Extended Data Fig. 5 PXS-5505 in combination with gemcitabine in vivo. a. […] Signal is defined as the enzyme activity in the aorta, while noise is measured in the presence of a high concentration (300 µM) BAPN to abolish any lysyl oxidase family activity. […] FITC-dextran (molecular weight: 10 kDa) signal quantification from KPC tumor end point from each treatment group (vehicle n = 3 biologically independent animals, PXS-5505 n = 5 biologically independent animals, Gem n = 5 biologically independent animals, PXS-5505 + Gem n = 5 biologically independent animals). […] P-values determined by Welchs t-test. […] Quantification of red birefringent (mature) collagen fibers from human PDXs at end point after 3 cycles of treatment, treated as indicated. […] P values determined by Welchs t-test. g. […]

Row | Compound | FITC-dextran (10 kDa) signal quantification | FITC-dextran signal (tumor perfusion) (TKCC10 model)
1 | Nc1ccn([C@@H]2O[C@H](CO)[C@@H](O)C2(F)F)c(=O)n1 [Gem, gemcitabine] | 94281 and 105741 and 104921 and 268246 and 141904 and 94336 and 85811 and 123546 and 103971 and 163288 and 111668 and 293663 and 289768 and 460793 and 155579 and 95059 and 92172 and 111389 and 85819 and 99312 | significantly reduced FITC signal
2 | Cl.Cl.NC/C=C(\F)CS(=O)(=O)c1cccc2cccnc12.O [PXS-5505, (Z)-3-fluoro-4-(quinolin-8-ylsulfonyl)but-2-en-1-amine dihydrochloride monohydrate] | 217149 and 705678 and 861620 and 155219 and 311738 and 1148786 and 651132 and 524503 and 645010 and 362873 and 336536 and 501004 and 447832 and 108773 and 210759 and 520769 and 406359 and 125675 and 423935 and 547504 | –
